# Peptide text beside a SMILES is read from it.
# Columns and labels:
# ZAT [1] = target: T1, ZAT (Homo sapiens, UniProt P01009, E366K); experiment: In vitro polymerization assay (native gel, western blot); type: biochemical; conditions: FIG. 3 western blot; peptides at 1 mM with Z-AT, 4 hours 37° C. then 30 minutes 62° C.; versus control (no peptide)
# Protocol: An in vitro polymerization assay was employed to screen the ability of a pharmacological chaperone to inhibit polymerization. […] In brief, M-AT or Z-AT was incubated at 37° C. for 4 hours, followed by 30 minutes at 62° C. The samples were then run on a Bis-Tris native gel and either blotted onto PVDF or detected with colloidal blue staining. Peptides at 1 mM were incubated with equal amounts (50 ng) of Z-AT for 4 hours at 37° C., followed by a 62° C. pulse for 30 minutes. Samples were separated on a 4-12% Bis-Tris native gel, blotted onto PVDF and the blot probed with a human specific antibody for alpha-1-antitrypsin. Additionally, in the case of samples from human plasma, a western blot was performed to assess the level of alpha-1-antitrypsin. polymerization. The inducible HeLa cell line retains Z-AT intracellularly as little Z-AT can be detected in the media. The Z-AT contained in lysates is apparently not processed to complex N-glycans as the molecular weight is slightly lower than M-AT purified from plasma, which is consistent with the findings of others. The intracellular material is endo H sensitive indicative of high mannose N-linked glycans.
# ZAT [2] = target: T1, ZAT; experiment: Western blot of intracellular ZAT in ZAT inducible CHO cells; type: cell-based; set-up: expressed in transfected cells; host or cells: inducible serum-free CHO cells (tetracycline repressor control); conditions: for intracellular levels of ZAT, normalized densitometry: FIG. 14 graph
# Protocol: Serum Free CHO and HeLa cells in which expression of Z-AT is under control of the tetracycline repressor were grown to confluence. To analyze the intra- and extracellular production of Z-AT, media was collected and cells were lysed in non-ionic detergent. Media and lysates were analyzed on a NuPAGE SDS gel followed by western blotting utilizing a human specific sheep anti-human alpha-1-antitrypsin polyclonal antibody.
# Furthermore, two compounds, compounds V and VI, decrease intracellular levels of ZAT. These compounds are shown in Table 2, along with structural data for each compound. […] The levels of intracellular levels of ZAT are even lower when treated at the higher concentration. […] FIG. 13 depicts a western blot of intracellular levels of ZAT after 1mM treatment. […] FIG. 14 is a graph of showing intracellular levels of ZAT after 1mM treatment with compounds V and VI. […] FIG. 15 is an in vitro polymerization assay with compounds I-VI, as well as Ac-TTAI-NH2 (SEQ ID NO: 6), a vehicle control and non-treated alpha-1-antitrypsin. There is an increase in polymerization after treatment with the low-molecular weight compounds.
# ZAT [3] = target: T1, ZAT; conditions: background studies; cited from earlier work
# ZAT [4] = target: T1, ZAT; experiment: Extracellular alpha-1-antitrypsin activity in media of ZAT inducible CHO cells; type: cell-based; set-up: expressed in transfected cells; host or cells: inducible serum-free CHO cells (tetracycline repressor control); conditions: FIG. 11, increasing treatment
# Description: (§1) An elastase inhibition assay was developed to measure the effects of a test compound on the inhibitory activity of secreted Z-AT. In one embodiment, to detect elastase activity, bovine elastin was labeled with BODIPY, which causes the fluorescence of the conjugate to be quenched. This non-fluorescent substrate was digested by elastase to yield highly fluorescent fragments. Alternatively, the non-fluorescent substrate may be digested by another protease to yield fluorescent fragments. The activity of α-1-antitrypsin was monitored by measuring a decrease in fluorescent signal, indicative of the elastase inhibitory activity of α-1-antitrypsin. A test compound was added to determine its effect on the elastase inhibitory activity of α-1-antitrypsin. In one embodiment, the resulting fluorescence was monitored in a Perkin Elmer Victor V plate reader using absorption and emission filters for fluorescein […].
# Serum free CHO cell lines were developed, expressing M-AT, Z-AT (Glu342Lys) and the S mutation (Glu264Val), so that secreted alpha-1-antitrypsin activity could be measured directly from media without interference from bovine, alpha-1-antitrypsin introduced into the media from serum. Briefly, cDNA was isolated by PCR from first strand human liver cDNA using conventional cloning methods. […]
# alpha-1-antitrypsin = alpha-1-antitrypsin (Homo sapiens, UniProt P01009, E366K); experiment: Alpha-1-antitrypsin elastase inhibition assay; type: biochemical
# Sequence of alpha-1-antitrypsin (P01009 25-418 E366K): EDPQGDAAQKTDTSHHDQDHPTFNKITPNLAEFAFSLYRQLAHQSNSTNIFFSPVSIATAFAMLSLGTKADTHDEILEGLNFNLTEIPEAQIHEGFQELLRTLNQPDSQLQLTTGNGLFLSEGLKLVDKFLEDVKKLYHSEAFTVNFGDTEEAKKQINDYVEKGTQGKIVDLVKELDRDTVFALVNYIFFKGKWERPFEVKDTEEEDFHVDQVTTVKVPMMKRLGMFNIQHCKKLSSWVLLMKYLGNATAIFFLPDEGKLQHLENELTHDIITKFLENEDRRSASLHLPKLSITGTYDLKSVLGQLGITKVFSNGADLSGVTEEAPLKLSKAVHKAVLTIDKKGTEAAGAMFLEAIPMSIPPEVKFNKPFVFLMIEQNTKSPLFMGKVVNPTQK
# Description: as §1, with “A test compound was added to determine its effect on the elastase inhibitory activity of α-1-antitrypsin.” left out
# Additional cell lines to screen for pharmacologic chaperones and to identify surrogate markers of Z-AT expression were developed using an inducible promoter system. The inducible systems are useful for determining if particular chaperones need to be present prior to Z-AT translation in the endoplasmic reticulum to induce secretion of Z-AT and/or inhibit […]
# ZAT [5] = target: T1, ZAT; conditions: background studies; cited from earlier work; remark: listed apart in the source
# [6] = 100 μM, FIG. 9 western blot, ZAT inducible CHO cells
# [7] = 1 mM, FIG. 10 western blot, ZAT inducible CHO cells, compared with 100 μM
# T1 sequence (P01009 25-418 E366K): as above
compound,measurement,setting,value
"CC(=O)NC(C(=O)NC(CCC(=O)O)C(=O)NC(C)C(=O)NC(C)C(=O)NCC(N)=O)C(C)O (stereo not drawn) [Ac-TEAAG-NH2, Ac-Thr-Glu-Ala-Ala-Gly-NH2] (Ac-TEAAG-NH2; configuration not given here)",alpha-1-antitrypsin polymerization,ZAT [1],significantly less alpha-1-antitrypsin polymerization
COc1ccc(C(O)C(=O)NNC(=O)N[C@H](C(N)=O)C(C)O)cc1O (stereo partly drawn) [Compound VI],intracellular levels of ZAT,ZAT [2]; [6],lower levels of ZAT
same,intracellular levels of ZAT,ZAT [2]; [7],even lower
same,intracellular levels of ZAT,"ZAT [2]; 1 mM, FIG. 13 western blot",significant reduction in ZAT levels intracellularly
same,"intracellular levels of ZAT, normalized densitometry",ZAT [2]; 1 mM,Levels are lower
O=C(O)CC(O)(CC(=O)O)C(=O)O [citrate],in vitro polymerization of Z-AT,ZAT [3],block in vitro polymerization of Z-AT
COc1ccc(C(O)C(=O)NNC(=O)N[C@@H](CO)C(N)=O)cc1O (stereo partly drawn) [Compound V],intracellular levels of ZAT,ZAT [2]; [6],lower levels of ZAT
same,intracellular levels of ZAT,ZAT [2]; [7],even lower
same,intracellular levels of ZAT,"ZAT [2]; 1 mM, FIG. 13 western blot",significant reduction in ZAT levels intracellularly
same,"intracellular levels of ZAT, normalized densitometry",ZAT [2]; 1 mM,Levels are lower
same,extracellular levels of ZAT and alpha-1-antitrypsin activity,ZAT [4],higher activity levels with higher treatment
"CC(=O)NC(C(=O)NC(CCC(=O)O)C(=O)NC(C(=O)NC(C)C(N)=O)C(C)C)C(C)O (stereo not drawn) [Ac-TEVA-NH2, Ac-Thr-Glu-Val-Ala-NH2] (Ac-TEVA-NH2; configuration not given here)",alpha-1-antitrypsin polymerization,ZAT [1],significantly less alpha-1-antitrypsin polymerization
same,inhibition of elastase activity by alpha-1-antitrypsin in the presence of peptide,alpha-1-antitrypsin; FIG. 2,"inhibits elastase activity significantly, in fact to a level comparable to that of wild type alpha-1-antitrypsin"
same,inhibition of alpha-1-antitrypsin activity by the peptide,alpha-1-antitrypsin; at concentrations required to inhibit polymerization,does not inhibit alpha-1-antitrypsin activity
"CC(=O)NC(C(=O)NC(CO)C(=O)NC(C)C(=O)NC(C)C(N)=O)C(C)O (stereo not drawn) [Ac-TSAA-NH2, Ac-Thr-Ser-Ala-Ala-NH2] (Ac-TSAA-NH2; configuration not given here)",alpha-1-antitrypsin polymerization,ZAT [1],significantly less alpha-1-antitrypsin polymerization
O=C(O)CCCc1ccccc1 [4-phenylbutyric acid],secretion of Z-AT from cells,ZAT [5],can increase secretion of Z-AT from cells
"CC(=O)NC(C(=O)NC(CCC(=O)O)C(=O)NC(C)C(=O)NC(C)C(N)=O)C(C)O (stereo not drawn) [Ac-TEAA-NH2, Ac-Thr-Glu-Ala-Ala-NH2] (Ac-TEAA-NH2; configuration not given here)",alpha-1-antitrypsin polymerization,ZAT [1],significantly less alpha-1-antitrypsin polymerization
Ac-TTAI-NH2,in vitro polymerization of Z-AT,ZAT [3],block in vitro polymerization of Z-AT
